Source: US20240287154A1, “MC3R AGONIST PEPTIDES” (The Regents of the University of Michigan, priority 2021, published 2024)
Non-standard residues stand in square brackets, D forms with d. Residues, ends and D or L forms follow the SMILES beside them. Phe(4-Cl) = N[C@@H](Cc1ccc(Cl)cc1)C(=O)O; Phe(4-F) = N[C@@H](Cc1ccc(F)cc1)C(=O)O; Phe(4-I) = N[C@@H](Cc1ccc(I)cc1)C(=O)O; 2Nal = N[C@@H](Cc1ccc2ccccc2c1)C(=O)O; NMeY = CN[C@@H](Cc1ccc(O)cc1)C(=O)O; Nle = CCCC[C@H](N)C(=O)O; dAbu = CC[C@@H](N)C(=O)O

Assays:
human MC4R = human MC4R (Homo sapiens, UniProt P32245); experiment: Intracellular cAMP levels in live cells, MC3R selectivity relative to MC4R; assay type: cell-based; settings: cAMP assays in human MC3R and human MC4R stable cell lines
human MC3R = target: T1, human MC3R (Homo sapiens, UniProt P41968); experiment: Intracellular cAMP levels in live cells, MC3R agonist activity; assay type: cell-based; settings: cAMP split-luciferase reporter cell line stably expressing human MC3R; direct agonist effect, measurement window 1
T1 construct: expressed in transfected cells
Protocol: The stable cell lines were grown and maintained in selection media consisting of Dulbecco's modified Eagle media (DMEM) with 4.5 g/l D-glucose, and 4 mM L-glutamine (Thermo Fisher Scientific, Waltham, MA), supplemented with 10% fetal bovine serum, 100 units/ml penicillin, 100 μg/ml streptomycin, 2.5 μg/ml amphotericin B, 200 μg/ml hygromycin B (for positive selection of the GScAMP22f luciferase reporter), and Geneticin™ (G418) 700 μg/ml (for MC3R or MC4R selection). Actual serum concentration during the assay is estimated to be about 1%. Cell line identity is routinely verified by qPCR and MC3R- and MC4R-specific oligonucleotides.
The assay for the determination of the CAMP response in live cells was described previously. […] Ccells were seeded at a density of 20,000 cells per well using 384-well poly-D lysine-coated, clear bottom, and black-wall assay plates (Corning Inc. Corning, NJ). Cells were allowed to attach to the plates for 18 to 24 h after which growth media was removed and 20 ul of 4% D-luciferin (Promega) in CO2 independent, serum-free medium (Thermo Fisher Scientific) was added to each well. […] Intracellular cAMP levels were measured using an FDSS 7000EX Functional Drug Screening System (Hamamatsu Photonics, Hamamatsu, Japan) in the Center for Chemical Genomics at the Life Sciences Institute. This instrument allowed the in-line addition of test-peptides and receptor agonists while simultaneously acquiring the luminescence signal from live cells. […] A submaximal forskolin (20 μM) concentration was also included to serve as a normalization reference to account for cell number variations and differences in assay transducer efficiency between cell lines.
With this set up it was possible to evaluate the direct agonist effect of the test-peptides on the MC3R and MC4R cell lines during measurement window 1, while the antagonist profile in the presence of EC90 α-MSH was determined on measurement window 2. […] EC50 or IC50 potency values were determined by non-linear regression by fitting the data to a sigmoid four-parameter variable slope model using the GraphPad Prism version 8.4 software package (San Diego CA).

T1 sequence (P41968 whole entry): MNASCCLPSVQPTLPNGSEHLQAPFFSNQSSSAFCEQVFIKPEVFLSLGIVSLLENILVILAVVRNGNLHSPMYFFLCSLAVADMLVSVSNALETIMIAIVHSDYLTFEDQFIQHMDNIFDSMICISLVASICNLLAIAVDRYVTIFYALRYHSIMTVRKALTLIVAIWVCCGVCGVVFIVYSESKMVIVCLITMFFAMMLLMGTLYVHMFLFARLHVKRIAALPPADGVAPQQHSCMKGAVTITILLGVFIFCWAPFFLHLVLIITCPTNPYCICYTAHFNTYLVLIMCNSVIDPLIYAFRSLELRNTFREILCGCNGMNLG
human MC4R, sequence (P32245 whole entry): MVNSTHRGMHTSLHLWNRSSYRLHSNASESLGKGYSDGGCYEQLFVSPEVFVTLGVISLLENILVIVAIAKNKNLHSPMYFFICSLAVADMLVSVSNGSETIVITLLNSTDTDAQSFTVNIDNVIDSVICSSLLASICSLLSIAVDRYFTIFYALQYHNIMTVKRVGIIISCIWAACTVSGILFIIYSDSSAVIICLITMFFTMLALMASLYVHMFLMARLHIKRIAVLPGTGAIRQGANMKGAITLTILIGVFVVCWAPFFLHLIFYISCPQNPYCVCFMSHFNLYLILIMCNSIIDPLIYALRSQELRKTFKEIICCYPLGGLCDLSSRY

SMILES | MC3R selectivity (relative to MC4R) (human MC4R) | EC50 (human MC3R) [nM]
CCCC[C@H](NC(C)=O)C(=O)N[C@H](C)C(=O)N[C@@H](Cc1c[nH]cn1)C(=O)N[C@@H](Cc1ccc(I)cc1)C(=O)N[C@@H](CCCNC(=N)N)C(=O)N[C@H](Cc1c[nH]c2ccccc12)C(=O)N[C@@H](CC(=O)O)C(=O)N[C@@H](CCCNC(=N)N)C(=O)N[C@@H](Cc1ccccc1)C(N)=O [CTX-1169, Nle-D-Ala-His-Phe(4-I)-Arg-D-Trp-Asp-Arg-Phe] (Ac-[Nle][dA]H[Phe(4-I)]R[dW]DRF-NH2) | 200 | 4.8
CCCC[C@H](NC(C)=O)C(=O)N[C@H](C)C(=O)N[C@@H](Cc1c[nH]cn1)C(=O)N[C@@H](Cc1ccc(F)cc1)C(=O)N[C@@H](CCCNC(=N)N)C(=O)N[C@H](Cc1c[nH]c2ccccc12)C(=O)N[C@@H](CC(=O)O)C(=O)N[C@@H](CCCNC(=N)N)C(=O)N[C@@H](Cc1ccccc1)C(=O)NCC(=O)O [CTX-1518, Nle-D-Ala-His-Phe(4-F)-Arg-D-Trp-Asp-Arg-Phe-Gly] (Ac-[Nle][dA]H[Phe(4-F)]R[dW]DRFG-OH) | 1,559 | 1.9
CCCC[C@H](NC(=O)[C@@H](NC(=O)[C@@H](N)Cc1ccc(O)cc1)C(C)C)C(=O)N[C@H](CC)C(=O)N[C@@H](Cc1c[nH]cn1)C(=O)N[C@@H](Cc1ccccc1)C(=O)N[C@@H](CCCNC(=N)N)C(=O)N[C@H](Cc1c[nH]c2ccccc12)C(=O)N[C@@H](CC(=O)O)C(N)=O [CTX-1131, Tyr-Val-Nle-D-Abu-His-Phe-Arg-D-Trp-Asp] (H-YV[Nle][dAbu]HFR[dW]D-NH2) | 65 | 6.6
CCCC[C@H](NC(C)=O)C(=O)N[C@H](C)C(=O)N[C@@H](Cc1c[nH]cn1)C(=O)N[C@@H](Cc1ccccc1)C(=O)N[C@@H](CCCNC(=N)N)C(=O)N[C@H](Cc1c[nH]c2ccccc12)C(=O)N[C@@H](CC(=O)O)C(=O)N[C@@H](CCCNC(=N)N)C(=O)N[C@@H](Cc1ccccc1)C(=O)NCC(=O)O [CTX-1122, Nle-D-Ala-His-Phe-Arg-D-Trp-Asp-Arg-Phe-Gly] (Ac-[Nle][dA]HFR[dW]DRFG-OH) | 7,703 | 1.2
CCCC[C@H](NC(C)=O)C(=O)N[C@H](C)C(=O)N[C@@H](Cc1c[nH]cn1)C(=O)N[C@@H](Cc1ccccc1)C(=O)N[C@@H](CCCNC(=N)N)C(=O)N[C@H](Cc1c[nH]c2ccccc12)C(=O)NCC(=O)N[C@@H](CCCCN)C(=O)N1CCC[C@H]1C(=O)N[C@H](C(N)=O)C(C)C [CTX-1164, Nle-D-Ala-His-Phe-Arg-D-Trp-Gly-Lys-Pro-Val] (Ac-[Nle][dA]HFR[dW]GKPV-NH2) | 83 | 1.5
CCCC[C@H](NC(C)=O)C(=O)N[C@H](C)C(=O)N[C@@H](Cc1c[nH]cn1)C(=O)N[C@@H](Cc1ccc(I)cc1)C(=O)N[C@@H](CCCNC(=N)N)C(=O)N[C@H](Cc1c[nH]c2ccccc12)C(=O)N[C@@H](CC(=O)O)C(=O)N[C@@H](CCCNC(=N)N)C(=O)N[C@@H](Cc1ccccc1)C(=O)NCC(=O)O [CTX-1167, Nle-D-Ala-His-Phe(4-I)-Arg-D-Trp-Asp-Arg-Phe-Gly] (Ac-[Nle][dA]H[Phe(4-I)]R[dW]DRFG-OH) | 937 | 4.8
CCCC[C@H](NC(=O)[C@@H](NC(=O)[C@@H](N)Cc1ccc(O)cc1)C(C)C)C(=O)N[C@H](C)C(=O)N[C@@H](Cc1c[nH]cn1)C(=O)N[C@H](Cc1ccccc1)C(=O)N[C@@H](CCCNC(=N)N)C(=O)N[C@H](Cc1c[nH]c2ccccc12)C(=O)N[C@@H](CC(=O)O)C(N)=O [CTX-1109, Tyr-Val-Nle-D-Ala-His-D-Phe-Arg-D-Trp-Asp] (H-YV[Nle][dA]H[dF]R[dW]D-NH2) | 10.6 | 13.1
CCCC[C@H](NC(C)=O)C(=O)N[C@H](C)C(=O)N[C@@H](Cc1c[nH]cn1)C(=O)N[C@@H](Cc1ccccc1)C(=O)N[C@@H](CCCNC(=N)N)C(=O)N[C@H](Cc1c[nH]c2ccccc12)C(=O)N[C@@H](C)C(=O)N[C@@H](CCCNC(=N)N)C(=O)N[C@@H](Cc1ccccc1)C(=O)NCC(=O)O [CTX-1528, Nle-D-Ala-His-Phe-Arg-D-Trp-Ala-Arg-Phe-Gly] (Ac-[Nle][dA]HFR[dW]ARFG-OH) | 182 | 1.9
CCCC[C@H](NC(C)=O)C(=O)N[C@H](CC)C(=O)N[C@@H](Cc1c[nH]cn1)C(=O)N[C@@H](Cc1ccccc1)C(=O)N[C@@H](CCCNC(=N)N)C(=O)N[C@H](Cc1c[nH]c2ccccc12)C(=O)N[C@@H](CC(=O)O)C(=O)N[C@@H](CCCNC(=N)N)C(=O)N[C@@H](Cc1ccccc1)C(=O)NCC(=O)O [CTX-1144, Nle-D-Abu-His-Phe-Arg-D-Trp-Asp-Arg-Phe-Gly] (Ac-[Nle][dAbu]HFR[dW]DRFG-OH) | 2,633 | 6.6
CCCC[C@H](NC(=O)[C@@H](NC(=O)[C@H](Cc1ccc(O)cc1)NC)C(C)C)C(=O)N[C@H](C)C(=O)N[C@@H](Cc1c[nH]cn1)C(=O)N[C@@H](Cc1ccccc1)C(=O)N[C@@H](CCCNC(=N)N)C(=O)N[C@H](Cc1c[nH]c2ccccc12)C(=O)N[C@@H](CC(=O)O)C(=O)N[C@@H](CCCNC(=N)N)C(=O)N[C@@H](Cc1ccccc1)C(=O)NCC(=O)O [CTX-1124, NMe-Tyr-Val-Nle-D-Ala-His-Phe-Arg-D-Trp-Asp-Arg-Phe-Gly] (H-[NMeY]V[Nle][dA]HFR[dW]DRFG-OH) | 69 | 1.7
CCCC[C@H](NC(=O)[C@@H](NC(=O)[C@@H](N)Cc1ccc(O)cc1)C(C)C)C(=O)N[C@H](C)C(=O)N[C@@H](Cc1c[nH]cn1)C(=O)N[C@@H](Cc1ccc(Cl)cc1)C(=O)N[C@@H](CCCNC(=N)N)C(=O)N[C@H](Cc1c[nH]c2ccccc12)C(=O)N[C@@H](CC(=O)O)C(=O)N[C@@H](CCCNC(=N)N)C(=O)N[C@@H](Cc1ccccc1)C(=O)NCC(=O)O [CTX-2121, Tyr-Val-Nle-D-Ala-His-Phe(4-Cl)-Arg-D-Trp-Asp-Arg-Phe-Gly] (H-YV[Nle][dA]H[Phe(4-Cl)]R[dW]DRFG-OH) | 93 | 2.5
CCCC[C@H](NC(C)=O)C(=O)N[C@H](C)C(=O)N[C@@H](Cc1c[nH]cn1)C(=O)N[C@@H](Cc1ccc2ccccc2c1)C(=O)N[C@@H](CCCNC(=N)N)C(=O)N[C@H](Cc1c[nH]c2ccccc12)C(=O)N[C@@H](CC(=O)O)C(=O)N[C@@H](CCCNC(=N)N)C(=O)N[C@@H](Cc1ccccc1)C(=O)NCC(=O)O [CTX-1512, Nle-D-Ala-His-Nal(2')-Arg-D-Trp-Asp-Arg-Phe-Gly] (Ac-[Nle][dA]H[2Nal]R[dW]DRFG-OH) | 804 | 13.1
CCCC[C@H](NC(=O)[C@@H](NC(=O)[C@@H](N)Cc1ccc(O)cc1)C(C)C)C(=O)N[C@H](Cc1ccccc1)C(=O)N[C@@H](Cc1c[nH]cn1)C(=O)N[C@@H](Cc1ccccc1)C(=O)N[C@@H](CCCNC(=N)N)C(=O)N[C@H](Cc1c[nH]c2ccccc12)C(=O)N[C@@H](CC(=O)O)C(N)=O [CTX-1132, Tyr-Val-Nle-D-Phe-His-Phe-Arg-D-Trp-Asp] (H-YV[Nle][dF]HFR[dW]D-NH2) | 6.8 | 3.9
CCCC[C@H](NC(=O)[C@@H](NC(=O)[C@@H](N)Cc1ccc(O)cc1)C(C)C)C(=O)N[C@H](C)C(=O)N[C@@H](Cc1c[nH]cn1)C(=O)N[C@@H](Cc1ccccc1)C(=O)N[C@@H](CCCNC(=N)N)C(=O)N[C@H](Cc1c[nH]c2ccccc12)C(=O)N[C@@H](CC(=O)O)C(=O)N[C@@H](CCCNC(=N)N)C(=O)N[C@@H](Cc1ccccc1)C(=O)NCC(N)=O [CTX-1118, Tyr-Val-Nle-D-Ala-His-Phe-Arg-D-Trp-Asp-Arg-Phe-Gly] (H-YV[Nle][dA]HFR[dW]DRFG-NH2) | 59 | 1.2
